From US20260098026A1, “M4 ACTIVATORS/MODULATORS AND USES THEREOF” (Cerevel Therapeutics, LLC, priority 2022, published 2026)

Experiments:
[1] = target: T1, M3 muscarinic acetylcholine receptor (mAChR) (Homo sapiens, UniProt P20309); test: FLIPR calcium assay (Fluo 8), M3-overexpressing CHO-K1 cells; format: cell-based
T1 construct: expressed in transfected cells; host or cells: CHO-K1
Protocol: Stimulation of a Gq-coupled G-protein coupled receptors (GPCRs), result in an efflux of calcium from the endoplasmic reticulum to the cytoplasm (Berridge, 1993), thus rendering this assay appropriate for the assessment of M1, M3 and M5 receptors. CHO-K1 cells overexpressing the M1, M3, or M5 muscarinic acetylcholine receptor (mAChR) were dispensed at 15,000 cells per well in 30 μl volume to 384-well plates and grown overnight at 37° C. in a 5% CO2 atmosphere. Fluo-8 Solution, 10 μl per well, was added to each well and incubated for 30 minutes at 37° C. in a 5% CO2 atmosphere. Compounds diluted in Hanks' balanced salt solution (HBSS) were transferred to the cell assay plate at 10 μl per well, and then read on a FLIPR instrument. EC50 and Emax figures were calculated from the resulting data for each receptor subtype.

M4 mAChR = target: T2, M4 mAChR (Homo sapiens, UniProt P08173); test: cAMP TR-FRET assay with forskolin, M4-overexpressing CHO-K1 cells; format: cell-based
T2 construct: expressed in transfected cells; host or cells: CHO-K1
T2 sequence (P08173 1-479): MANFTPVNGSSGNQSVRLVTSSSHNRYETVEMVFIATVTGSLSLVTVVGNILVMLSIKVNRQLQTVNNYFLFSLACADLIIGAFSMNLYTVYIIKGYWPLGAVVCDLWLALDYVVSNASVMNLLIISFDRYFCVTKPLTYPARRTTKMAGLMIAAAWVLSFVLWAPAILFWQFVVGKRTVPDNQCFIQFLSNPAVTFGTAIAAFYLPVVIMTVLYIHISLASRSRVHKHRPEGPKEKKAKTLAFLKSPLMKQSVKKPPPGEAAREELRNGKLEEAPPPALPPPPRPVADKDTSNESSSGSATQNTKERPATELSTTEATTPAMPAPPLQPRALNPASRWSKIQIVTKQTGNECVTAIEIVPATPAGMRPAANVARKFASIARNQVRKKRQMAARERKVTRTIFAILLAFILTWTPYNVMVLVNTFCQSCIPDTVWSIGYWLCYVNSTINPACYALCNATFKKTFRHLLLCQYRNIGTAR
Source text: The M2 and M4 mACh receptors are Gi-coupled receptors which, upon activation, produce a decrease in cAMP. Assays were developed that measured the potency and efficacy of compounds at the M2 or M4 mAChR using M2- or M4-overexpressing CHO-K1 cell lines. Time-resolved fluorescence resonance energy transfer (TR-FRET) technology was used, where signal occurs as a result of transfer of energy if the donor molecule is in close proximity to an acceptor molecule when the molecules have bound to the molecule of interest. The cAMP detection is a competition binding assay, where cAMP produced by cells competes for binding with the labeled donor molecule to the anti-cAMP acceptor antibody. Due to the low basal levels of cAMP in the CHO-K1 cell line, forskolin was used to increase cAMP levels to enable assessment of agonist activity at the mAChR of interest.

T1 sequence (P20309 whole entry): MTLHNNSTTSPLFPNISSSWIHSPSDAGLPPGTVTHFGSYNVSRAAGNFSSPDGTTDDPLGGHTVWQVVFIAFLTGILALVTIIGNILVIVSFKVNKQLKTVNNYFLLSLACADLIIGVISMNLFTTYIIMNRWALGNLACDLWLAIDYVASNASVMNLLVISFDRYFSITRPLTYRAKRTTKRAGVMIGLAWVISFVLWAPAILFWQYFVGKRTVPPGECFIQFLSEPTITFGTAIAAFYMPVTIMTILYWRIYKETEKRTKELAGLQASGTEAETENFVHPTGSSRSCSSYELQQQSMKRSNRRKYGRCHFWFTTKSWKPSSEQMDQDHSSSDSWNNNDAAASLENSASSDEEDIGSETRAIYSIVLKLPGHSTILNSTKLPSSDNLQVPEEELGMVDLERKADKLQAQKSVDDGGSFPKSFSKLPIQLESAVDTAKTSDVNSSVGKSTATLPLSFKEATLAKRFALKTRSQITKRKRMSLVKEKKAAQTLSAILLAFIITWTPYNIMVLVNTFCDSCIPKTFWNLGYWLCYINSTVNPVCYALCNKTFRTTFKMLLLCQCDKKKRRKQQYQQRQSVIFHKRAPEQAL

SMILES	EC50 ([1]; FLIPR) [µM]	Emax (M4 mAChR; cAMP assay) [%]	EC50 ([1]; FLIPR calcium) [µM]	Emax (M4 mAChR; cAMP TR-FRET with forskolin) [%]
CCOC(=O)N1CC2(CC[C@@H](N3CCN(c4cc(F)cnc4-c4cnc(C)cn4)CC3)C2)C1 [Compound A231]	> 10	50 to 79.9		
C=CCn1cc(-c2ncc(F)cc2N2CCN([C@@H]3CCC4(C3)CN(C(=O)OCC)C4)CC2)cn1 [Compound A84]			> 10	80 to 100
CCOC(=O)N1CC2(CC[C@@H](N3CCN(c4cc(F)cnc4C4=CCOCC4)CC3)C2)C1 [Compound A193]	> 10	80 to 100		
CCOC(=O)N1CC2(CC[C@@H](N3CCN(c4cc(F)cnc4-c4ccn(C(C)(C)C)n4)CC3)C2)C1 [Compound A200]	> 10	19 to 49.9		
CCOC(=O)N1CC2(CC[C@@H](N3CCN(c4cc(F)cnc4-c4cnccc4C)CC3)C2)C1 [Compound A35]			> 10	80 to 100
CCOC(=O)N1CC2(CC[C@@H](N3CCN(c4cc(F)cnc4-c4c(C)noc4C)CC3)C2)C1 [Compound A78]			> 10	80 to 100
CCOC(=O)N1CC2(CC[C@@H](N3CCN(c4cc(F)cnc4-c4ccn(C)n4)CC3)C2)C1 [Compound A120]			> 10	80 to 100
CCOC(=O)N1CC2(CC[C@@H](N3CCN(c4cc(F)cnc4-c4cncc(C)c4)CC3)C2)C1 [Compound A31]			> 10	80 to 100
CCOC(=O)N1CC2(CC[C@@H](N3CCN(c4cc(F)cnc4-c4ccn(C(F)F)n4)CC3)C2)C1 [Compound A198]	> 10	50 to 79.9		
CCOC(=O)N1CC2(CC[C@@H](N3CCN(c4cc(F)cnc4-c4ccnc(OC)c4)CC3)C2)C1 [Compound A110]			> 10	80 to 100
CCOC(=O)N1CC2(CC[C@@H](N3CCN(c4cc(F)cnc4-c4cncc(OC)c4)CC3)C2)C1 [Compound A36]			> 10	80 to 100
CCOC(=O)N1CC2(CC[C@@H](N3CCN(c4cc(F)cnc4-c4cnc(F)c(F)c4)CC3)C2)C1 [Compound A79]			> 10	80 to 100
CCOC(=O)N1CC2(CC[C@@H](N3CCN(c4cc(F)cnc4-c4cnn5c4CCCC5)CC3)C2)C1 [Compound A160]	> 10	80 to 100		
CCOC(=O)N1CC2(CC[C@@H](N3CCN(c4cc(F)cnc4-c4ccnc(OC)c4F)CC3)C2)C1 [Compound A106]			> 10	80 to 100
CCOC(=O)N1CC2(CC[C@@H](N3CCN(c4cc(F)cnc4-c4cncnc4C)CC3)C2)C1 [Compound A181]	> 10	80 to 100		
CCOC(=O)N1CC2(CC[C@@H](N3CCN(c4cc(F)cnc4-c4ccnc(F)c4C)CC3)C2)C1 [Compound A114]			> 10	80 to 100
CCOC(=O)N1CC2(CC[C@@H](N3CCN(c4cc(F)cnc4-c4cncc(COC)c4)CC3)C2)C1 [Compound A138]			> 10	80 to 100
CCOC(=O)N1CC2(CC[C@@H](N3CCN(c4cc(F)cnc4-c4cnn(C)c4)CC3)C2)C1 [Compound A190]	> 10	80 to 100		
CCOC(=O)N1CC2(CC[C@@H](N3CCN(c4cc(F)cnc4-c4ccncc4F)CC3)C2)C1 [Compound A45]			> 10	80 to 100
CCOC(=O)N1CC2(CC[C@@H](N3CCN(c4cc(F)cnc4-c4ccc(OC)c(F)c4)CC3)C2)C1 [Compound A112]			> 10	80 to 100
CCOC(=O)N1CC2(CC[C@@H](N3CCN(c4cc(F)cnc4OC4CC5(COC5)C4)CC3)C2)C1 [Compound A233]	> 10	80 to 100		
CCOC(=O)N1CC2(CC[C@@H](N3CCN(c4cc(F)cnc4-c4cnc(OCC)nc4)CC3)C2)C1 [Compound A132]			> 10	80 to 100
CCOC(=O)N1CC2(CC[C@@H](N3CCN(c4cc(Cl)cnc4-c4ccc(=O)n(C)c4)CC3)C2)C1 [Compound A207]	> 10	80 to 100		

SMILES	EC50 ([1]; FLIPR) [µM]	Emax (M4 mAChR; cAMP assay) [%]	EC50 ([1]; FLIPR calcium) [µM]	Emax (M4 mAChR; cAMP TR-FRET with forskolin) [%]
CCOC(=O)N1CC2(CC[C@@H](N3CCN(c4cc(F)cnc4-c4ccc5c(c4)OCO5)CC3)C2)C1 [Compound A130]			> 10	80 to 100
CCOC(=O)N1CC2(CC[C@@H](N3CCN(c4cc(F)cnc4-c4cccc(O)c4)CC3)C2)C1 [Compound A32]			> 10	80 to 100
CCOC(=O)N1CC2(CC[C@@H](N3CCN(c4cc(F)cnc4NC4CCOCC4)CC3)C2)C1 [Compound A9, ethyl (6R)-6-[4-[5-fluoro-2-(tetrahydropyran-4-ylamino)-3-pyridyl]piperazin-1-yl]-2-azaspiro[3.4]octane-2-carboxylate]			> 10	80 to 100
CCOC(=O)N1CC2(CC[C@@H](N3CCN(c4cc(F)cnc4-c4cnc(OC(F)F)cn4)CC3)C2)C1 [Compound A235]	> 10	80 to 100		
CCOC(=O)N1CC2(CC[C@@H](N3CCN(c4cc(F)cnc4-c4ccc5c(c4)OCCO5)CC3)C2)C1 [Compound A48]			> 10	80 to 100
CCOC(=O)N1CC2(CC[C@@H](N3CCN(c4cc(F)cnc4-c4cnccc4OC)CC3)C2)C1 [Compound A69]			> 10	80 to 100
CCOC(=O)N1CC2(CC[C@@H](N3CCN(c4cc(F)cnc4-c4cccc(C)n4)CC3)C2)C1 [Compound A135]			> 10	19 to 49.9
CCOC(=O)N1CC2(CC[C@@H](N3CCN(c4cc(F)cnc4-c4cccnc4F)CC3)C2)C1 [Compound A179]	> 10	80 to 100		
[2H]C([2H])([2H])n1ccc(-c2ncc(F)cc2N2CCN([C@@H]3CCC4(C3)CN(C(=O)OCC)C4)CC2)n1 [Compound A199]	> 10	19 to 49.9		
CCOC(=O)N1CC2(CC[C@@H](N3CCN(c4cc(F)cnc4-c4ccc(O)c(OC)c4)CC3)C2)C1 [Compound A40]			> 10	80 to 100
CCOC(=O)N1CC2(CC[C@@H](N3CCN(c4cc(F)cnc4-c4cn(C)nc4C)CC3)C2)C1 [Compound A157]	> 10	80 to 100		
CCOC(=O)N1CC2(CC[C@@H](N3CCN(c4cc(F)cnc4-c4cccn(C)c4=O)CC3)C2)C1 [Compound A203]	> 10	19 to 49.9		
CCOC(=O)N1CC2(CC[C@@H](N3CCN(c4cc(F)cnc4-c4ccc5c(c4)CN(C)C5=O)CC3)C2)C1 [Compound A192]	> 10	80 to 100		
CCOC(=O)N1CC2(CC[C@@H](N3CCN(c4cc(F)cnc4-c4cnn(COC)c4)CC3)C2)C1 [Compound A168]	> 10	80 to 100		
CCOC(=O)N1CC2(CC[C@@H](N3CCN(c4cc(F)cnc4-c4ccc5nccn5c4)CC3)C2)C1 [Compound A96]			> 10	80 to 100
CCOC(=O)N1CC2(CC[C@@H](N3CCN(c4cc(F)cnc4-c4cccnc4)CC3)C2)C1 [Compound A37]			> 10	80 to 100
CCOC(=O)N1CC2(CC[C@@H](N3CCN(c4cc(F)cnc4-c4cnc(N5CCC5)nc4)CC3)C2)C1 [Compound A124]			> 10	80 to 100
CCOC(=O)N1CC2(CC[C@@H](N3CCN(c4cc(F)cnc4-c4ccn(C)c(=O)c4)CC3)C2)C1 [Compound A102]			> 10	80 to 100
CCOC(=O)N1CC2(CC[C@@H](N3CCN(c4cc(F)cnc4-c4cccc(F)c4O)CC3)C2)C1 [Compound A118]			> 10	80 to 100
CCOC(=O)N1CC2(CC[C@@H](N3CCN(c4cc(F)cnc4-c4ccn5ncnc5c4)CC3)C2)C1 [Compound A177]	> 10	80 to 100		
CCOC(=O)N1CC2(CC[C@@H](N3CCN(c4cc(F)cnc4-c4ccc(F)c(O)c4)CC3)C2)C1 [Compound A156]	> 10	80 to 100		
CCOC(=O)N1CC2(CC[C@@H](N3CCN(c4cc(F)cnc4-c4cccnc4OC)CC3)C2)C1 [Compound A46]			> 10	80 to 100
CCOC(=O)N1CC2(CC[C@@H](N3CCN(c4cc(F)cnc4-n4cc(C)cn4)CC3)C2)C1 [Compound A10, ethyl (6R)-6-[4-[5-fluoro-2-(4-methylpyrazol-1-yl)-3-pyridyl]piperazin-1-yl]-2-azaspiro[3.4]octane-2-carboxylate]			> 10	80 to 100
